Experimental data: PubChem BioAssay AID248 (DTP/NCI, 2004)
“And” between values parts separate entries of the source, which are not always exact repeats. Equal values may be shown once. Toxic doses and inconclusive results are not listed. Cut-off read from the data, not from the text of the source: active = T/C of 150% or more; inactive = T/C below 125%. Square brackets hold non-standard residues; d marks the D form. Peptide text beside a SMILES is read from it. * marks the point of attachment. ξ: configuration not given here. Cbz = O=C(OCc1ccccc1)*; OBn = c1ccc(CO*)cc1; ξP = O=C(O)C1CCCN1

Tested on: L1210 leukemia ip in BDF1 mice, survival T/C
Assay: NCI In Vivo Anticancer Drug Screen. Data for tumor model L1210 Leukemia (intraperitoneal) in B6D2F1 (BDF1) mice
Conditions: endpoint: mean survival time, higher = longer survival
Method in brief: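 Tumor was transplanted into mice, which were then dosed with test compound or vehicle alone. Survival was recorded for each group, and the treated figure was expressed relative to the control figure.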

[1] = dose: 100.0 mg/kg/injection, schedule: Q01DX001 (ip), vehicle: Klucel (hydroxypropylcellulose) (HPC)
[2] = dose: 100.0 mg/kg/injection, schedule: Q04DX003 (ip), vehicle: Klucel (hydroxypropylcellulose) (HPC)
[3] = dose: 200.0 mg/kg/injection, schedule: Q01DX001 (ip), vehicle: Klucel (hydroxypropylcellulose) (HPC)
[4] = dose: 200.0 mg/kg/injection, schedule: Q04DX003 (ip), vehicle: Klucel (hydroxypropylcellulose) (HPC)
[5] = dose: 400.0 mg/kg/injection, schedule: Q01DX001 (ip), vehicle: Klucel (hydroxypropylcellulose) (HPC)
[6] = dose: 400.0 mg/kg/injection, schedule: Q04DX003 (ip), vehicle: Klucel (hydroxypropylcellulose) (HPC)
[7] = dose: 100.0 mg/kg/injection, schedule: Q01DX009 (ip), vehicle: saline with Tween-80
[8] = dose: 50.0 mg/kg/injection, schedule: Q04DX002 (ip), vehicle: Klucel (hydroxypropylcellulose) (HPC)
[9] = dose: 100.0 mg/kg/injection, schedule: Q04DX002 (ip), vehicle: Klucel (hydroxypropylcellulose) (HPC)
[10] = dose: 200.0 mg/kg/injection, schedule: Q04DX002 (ip), vehicle: Klucel (hydroxypropylcellulose) (HPC)
[11] = dose: 25.0 mg/kg/injection, schedule: Q01DX009 (ip), vehicle: saline
[12] = dose: 50.0 mg/kg/injection, schedule: Q01DX009 (ip), vehicle: saline
[13] = dose: 400.0 mg/kg/injection, schedule: Q04DX002 (ip), vehicle: Klucel (hydroxypropylcellulose) (HPC)

Measured: T/C

COC(=O)C1(C(=O)OC)C2CCCCC21C (stereo not given)
inactive: [1] 103 % of control | dose: 100.0 mg/kg/injection, schedule: Q01DX009 (ip), vehicle: Klucel (hydroxypropylcellulose) (HPC) 102 % of control | [2] 106 % of control | [3] 102 % of control | dose: 200.0 mg/kg/injection, schedule: Q01DX009 (ip), vehicle: Klucel (hydroxypropylcellulose) (HPC) 101 % of control | [4] 106 % of control | [5] 95 % of control | dose: 400.0 mg/kg/injection, schedule: Q01DX009 (ip), vehicle: Klucel (hydroxypropylcellulose) (HPC) 102 % of control | [6] 101 % of control

CCOC(=O)c1cccc([N+](=O)[O-])c1I
inactive: dose: 100.0 mg/kg/injection, schedule: Q04DX003 (ip), vehicle: saline 93 % of control | dose: 200.0 mg/kg/injection, schedule: Q04DX003 (ip), vehicle: saline 95 % of control | dose: 400.0 mg/kg/injection, schedule: Q04DX003 (ip), vehicle: saline 96 % of control

CCNC(=S)Nc1ccc(OCC)cc1
inactive: dose: 100.0 mg/kg/injection, schedule: Q04DX002 (ip), vehicle: saline with Tween-80 89 % of control | dose: 200.0 mg/kg/injection, schedule: Q04DX002 (ip), vehicle: saline with Tween-80 95 % of control | dose: 400.0 mg/kg/injection, schedule: Q04DX002 (ip), vehicle: saline with Tween-80 100 % of control

CCOC(CSC)OCC
inactive: dose: 100.0 mg/kg/injection, schedule: Q01DX009 (sc), vehicle: olive oil, sesame oil, peanut oil 99 % of control | dose: 100.0 mg/kg/injection, schedule: Q04DX003 (sc), vehicle: olive oil, sesame oil, peanut oil 102 % of control | dose: 200.0 mg/kg/injection, schedule: Q01DX009 (sc), vehicle: olive oil, sesame oil, peanut oil 94 % of control | dose: 200.0 mg/kg/injection, schedule: Q04DX003 (sc), vehicle: olive oil, sesame oil, peanut oil 96 % of control | dose: 400.0 mg/kg/injection, schedule: Q01DX009 (sc), vehicle: olive oil, sesame oil, peanut oil 91 % of control | dose: 400.0 mg/kg/injection, schedule: Q04DX003 (sc), vehicle: olive oil, sesame oil, peanut oil 94 % of control

Cc1cc([N+](=O)[O-])ccc1NC(=O)c1ccccc1
inactive: dose: 100.0 mg/kg/injection, schedule: Q04DX003 (ip), vehicle: acetone 94 % of control | dose: 200.0 mg/kg/injection, schedule: Q04DX003 (ip), vehicle: acetone 100 % of control | dose: 400.0 mg/kg/injection, schedule: Q04DX003 (ip), vehicle: acetone 93 % of control

O=C(CNC(=O)OCc1ccccc1)NCC(=O)N1CCCC1C(=O)OCc1ccccc1 (stereo not drawn) (Cbz-Gly-Gly-[ξP]-OBn)
inactive: [2] 101 % of control | [4] 103 % of control | [6] 100 % of control

COC(=O)/C=C/N(Cc1ccccc1)Cc1ccccc1
inactive: [7] 103 % of control | dose: 200.0 mg/kg/injection, schedule: Q01DX009 (ip), vehicle: saline with Tween-80 95 % of control | dose: 400.0 mg/kg/injection, schedule: Q01DX009 (ip), vehicle: saline with Tween-80 91 % of control

CC1(C)CC(=O)C(C)(C)C(=O)C1 (tested in a mixture with another compound)
inactive: dose: 25.0 mg/kg/injection, schedule: Q04DX002 (ip), vehicle: Klucel (hydroxypropylcellulose) (HPC) 102 % of control | [8] 96 % of control | [9] 108 % of control

CCCCN1CCN(CCCC)C1=O
inactive: [9] 90 % of control | [10] 90 % of control

CCCC#C/C=C1/C=CC(=O)O1
inactive: dose: 75.0 mg/kg/injection, schedule: Q01DX001 (ip), vehicle: carboxymethylcellulose (CMC) 94 % of control | dose: 150.0 mg/kg/injection, schedule: Q01DX001 (ip), vehicle: carboxymethylcellulose (CMC) 97 % of control

CCC1CC(C)C(=O)NC1=O (stereo not given)
inactive: dose: 12.5 mg/kg/injection, schedule: Q01DX009 (ip), vehicle: saline 95 % of control | dose: 12.5 mg/kg/injection, schedule: Q04DX003 (ip), vehicle: saline 91 % of control | [11] 100 % of control | dose: 25.0 mg/kg/injection, schedule: Q04DX003 (ip), vehicle: saline 110 % of control | [12] 95 % of control | dose: 50.0 mg/kg/injection, schedule: Q04DX003 (ip), vehicle: saline 96 % of control

C#CC(CC(C)CC(C)(C)C)N(C)C (stereo not given)
inactive: dose: 25.0 mg/kg/injection, schedule: Q01DX009 (ip), vehicle: saline with Tween-80 92 % of control | dose: 50.0 mg/kg/injection, schedule: Q01DX009 (ip), vehicle: saline with Tween-80 92 % of control | [7] 101 % of control

O=[N+]([O-])c1ccc2c(c1)-c1ccccc1/C2=C1\c2ccccc2-c2cc([N+](=O)[O-])ccc21
inactive: dose: 100.0 mg/kg/injection, schedule: Q01DX005 (ip), vehicle: Klucel (hydroxypropylcellulose) (HPC) 105 % of control | [9] 90 % of control | dose: 200.0 mg/kg/injection, schedule: Q01DX005 (ip), vehicle: Klucel (hydroxypropylcellulose) (HPC) 91 % of control | [10] 104 % of control | dose: 400.0 mg/kg/injection, schedule: Q01DX005 (ip), vehicle: Klucel (hydroxypropylcellulose) (HPC) 91 % of control | [13] 96 % of control

CCC(CN)(c1cccs1)c1cccs1
inactive: [1] 87 % of control | [3] 97 % of control | [5] 103 % of control

CC1(C)OC2COC(c3[nH]nc(C(N)=O)c3C(=O)N=[N+]=[N-])C2O1 (stereo not given)
inactive: dose: 100.0 mg/kg/injection, schedule: Q01DX005 (ip), vehicle: saline 101 % of control | dose: 200.0 mg/kg/injection, schedule: Q01DX005 (ip), vehicle: saline 101 % of control

CC(=O)/C=C/c1ccc2c(c1)OCO2
inactive: [11] 105 % of control | [12] 96 % of control | dose: 100.0 mg/kg/injection, schedule: Q01DX009 (ip), vehicle: saline 110 % of control | dose: 200.0 mg/kg/injection, schedule: Q01DX009 (ip), vehicle: saline 94 % of control | dose: 400.0 mg/kg/injection, schedule: Q01DX009 (ip), vehicle: saline 102 % of control

COC(CBr)OC
inactive: dose: 10.0 mg/kg/injection, schedule: Q01DX009 (ip), vehicle: saline 95 % of control | dose: 10.0 mg/kg/injection, schedule: Q04DX003 (ip), vehicle: saline 98 % of control | dose: 20.0 mg/kg/injection, schedule: Q01DX009 (ip), vehicle: saline 95 % of control | dose: 20.0 mg/kg/injection, schedule: Q04DX003 (ip), vehicle: saline 101 % of control | dose: 25.0 mg/kg/injection, schedule: Q04DX003 (ip), vehicle: saline with Tween-80 98 % of control | dose: 40.0 mg/kg/injection, schedule: Q01DX009 (ip), vehicle: saline 104 % of control | dose: 40.0 mg/kg/injection, schedule: Q04DX003 (ip), vehicle: saline 108 % of control | dose: 50.0 mg/kg/injection, schedule: Q04DX003 (ip), vehicle: saline with Tween-80 98 % of control

COC(=O)c1cc([N+](=O)[O-])c(C)s1
inactive: dose: 100.0 mg/kg/injection, schedule: Q01DX001 (ip), vehicle: saline 100 % of control | dose: 200.0 mg/kg/injection, schedule: Q01DX001 (ip), vehicle: saline 100 % of control | dose: 400.0 mg/kg/injection, schedule: Q01DX001 (ip), vehicle: saline 96 % of control

O=C(O)c1cc(Br)cc(I)c1Br
inactive: [9] 105 % of control | [10] 117 % of control | [13] 105 % of control

Cc1ccc(-n2cccc2)cc1
inactive: [8] 90 % of control | [9] 93 % of control and 90 % of control | [10] 90 % of control | [13] 106 % of control
